Experimental data from publication PMC5486975 (European journal of medicinal chemistry, 2017).

How the values were obtained:
PC-3 cells = details: cited from earlier work
[1] = tested on: PWR-1E non-neoplastic human prostate epithelial cells; test: WST-1 cell proliferation assay, PWR-1E; format: cell-based
[2] = tested on: LNCaP human androgen-sensitive prostate cancer cell line; test: WST-1 cell proliferation assay, LNCaP; format: cell-based
[3] = tested on: DU145 human androgen-insensitive prostate cancer cell line; test: WST-1 cell proliferation assay, DU145; format: cell-based
[4] = tested on: PC-3 human androgen-insensitive prostate cancer cell line; test: WST-1 cell proliferation assay, PC-3; format: cell-based
[5] = fold potency relative to curcumin

## COc1cc(/C=C/C(=O)CC(=O)/C=C/c2ccc(O)c(OC)c2)ccc1O [Curcumin]
PC-3 cells
  effect on PC-3 cell cycle progression: arresting the G1/S phase
[1]; Homo sapiens, PWR-1E, 72 h, read-out: IC50 (μM) PWR-1E
  IC50: 8.14 to 9.54 µM
[1]; [5]
  IC50(curcumin)/IC50(trienone) PWR-1E: 1
[2]; Homo sapiens, LNCaP, 72 h, read-out: IC50 (μM) LNCaP
  IC50: 13.6 ± 2.69 µM
[2]; [5]
  IC50(curcumin)/IC50(trienone) LNCaP: 1
[3]; Homo sapiens, DU-145, 72 h, read-out: IC50 (μM) DU145
  IC50: 26.2 ± 0.65 µM
[3]; [5]
  IC50(curcumin)/IC50(trienone) DU145: 1
[4]; Homo sapiens, 72 h, read-out: IC50 (μM) PC-3
  IC50: 25.4 ± 2.15 µM
[4]; [5]
  IC50(curcumin)/IC50(trienone) PC-3: 1
